Results as given in PubChem BioAssay AID179 (DTP/NCI, 2004).
Activity calls are given as the source filed them.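 Rule for the calls: active = compounds giving half or more protection of infected cells from virus-caused growth loss, again on retest; inactive = the rest.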 Where a SMILES comes first, the peptide text is derived from it. Bridges are numbered along the chain shown (N, C = ends). [ ]: non-standard residue; d: D form. The star is where a group is joined. Cbz = O=C(OCc1ccccc1)*; Aib = CC(C)(N)C(=O)O; OBn = c1ccc(CO*)cc1; βAla = NCCC(=O)O

System: CEM cells HIV-1 protection, formazan growth assay
Assay: NCI AIDS Antiviral Assay
Details: for IC50: measured here: growth of uninfected CEM cells
In short: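 CEM (human) cells, HIV-1 infected vs uninfected, 5-point dosing, formazan growth read-out. Retest threshold 50% protection.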

SMILES | EC50 [µM] | IC50 [µM] | outcome
CCCCCCCCCCCC1CC(=O)NCCCN(C)CCCCN(C)CCCN1C (stereo not given) | > 200 | 1.12 | –
OCc1ccc2c(c1)CC1(Cc3ccc(/C=N/O)cc3C1)C2 (stereo not given) | > 200 | 0.891 | –
S=C(NNc1ccccc1Oc1ccccc1)NNc1ccccc1Oc1ccccc1 | > 100 | > 100 | –
COc1ccc(NC(=O)/C(=C/c2ccc(N(CCC#N)CCC#N)cc2)NC(=O)c2cc([N+](=O)[O-])ccc2Cl)cc1 | > 23.4 | > 23.4 | –
CC(=O)Nc1cc2cc(NC(=O)C(Cl)(Cl)Cl)ccc2oc1=O | > 81.3 | > 81.3 | –
O=[N+]([O-])c1ccc2nc(/C=C(\O)c3ccc(Cl)cc3)c(/C=C(\O)c3ccc(Cl)cc3)nc2c1 | > 200 | 89.1 | –
CC1(C)NC(=O)C(NC(=O)C(CC(=O)OCc2ccccc2)NC(=O)OCc2ccccc2)CCCCNC(=O)CCNC1=O (stereo not given) (Cbz-D(OBn)K[Aib][βAla]; lactam 2-C; configuration not given here) | > 200 | > 200 | –
O=S(=O)(Oc1ccc2ccccc2c1-c1c(OS(=O)(=O)C(F)(F)F)ccc2ccccc12)C(F)(F)F | – | – | inactive
CCCNCCCC(NC(C)=O)C(=O)NCc1ccccc1 (stereo not given) | > 813 | > 813 | –
CC(C)(C)C=C=C(C(C)(C)C)P(=O)(O)O | > 200 | > 200 | –
O=P1(c2ccccc2)c2ccccc2CCc2ccccc21 | > 200 | 95.5 | –
CC[C@@H](C)C(=O)O[C@@H]1CC[C@]2(CO2)C2(COC(C)=O)C(OC(C)=O)CC(C)[C@](C)(C[C@H](O)C3=CC(=O)OC3)[C@@H]12 (stereo not given in full) | – | – | inactive
N#C/C(=C\c1cccc2ccccc12)c1ccc(Cl)cc1 | > 200 | 95.5 | –
CC(C)NC(=O)OCCN=C1c2ccccc2CCc2ccccc21 | > 200 | 27.5 | –
O=C(Cc1nc2ccccc2s1)Nc1cccc(C(F)(F)F)c1 | > 21.4 | 17.4 | –
O=c1[nH]c2c3ccccc3ccc2c2cc3c(cc12)OCO3 | – | – | inactive
COc1ccc2c(c1)OC[C@@H]1c3cc(O)c4c(OC)cccc4c3O[C@H]21 | > 100 | 44.7 | –
Cc1cc(C)n2c(nc3ccccc32)c1C#N | > 200 | 148 | –
CC(=O)C12C[C@](C#N)(N3CCCCCC3)C1C=Cc1ccccc12 (stereo not given in full) | > 200 | > 200 | –
COc1ccc([P+](Cc2ccccc2)(c2ccccc2)c2ccc3ccccc3c2)cc1 (stereo not given) | > 200 | 0.794 | –
COc1cccc2c1C(=O)c1c(O)c3c(c(O)c1C2=O)CC(O)(C(O)CO)CC3OC1CC(N2CCOCC2)C(O)C(C)O1 (stereo not given) | > 0.2 | 0.00355 | –

SMILES | EC50 [µM] | IC50 [µM] | outcome
CN1CCN=C(c2ccccc2)c2cc(Cl)ccc21 | > 200 | 105 | –
NS(=O)(=O)c1ccccc1[N+](=O)[O-] | – | – | inactive
O=C(OCC1OC2OC(c3ccccc3)(n3ccc4c([N+](=O)[O-])ccnc43)OC2C1OC(=O)c1ccccc1)c1ccccc1 (stereo not given) | > 200 | 145 | –
C#CCNC(=O)N(CC#C)N=O | > 1100 | 166 | –
CC(C)(C)OC(=O)N1NC(c2ccccc2)CC1c1ccccc1 (stereo not given) | > 200 | 28.2 | –
Cc1ccc2oc(=O)c(C#N)c(C)c2c1 | > 25.1 | > 25.1 | –
CCOC(=O)/C(=C/c1ccc(N(C)C)cc1)C(=O)c1ccccc1 | > 8.51 | > 8.51 | –
CC1(O)c2ccccc2[P+](C)(c2ccccc2)c2ccccc21 (stereo not given) | > 562 | 29.5 | –
O=C1NC(N2CCCC(CO)C2)=N/C1=C\c1ccc(Cl)cc1 (stereo not given) | > 200 | 115 | –
O=C(CP(c1ccccc1)c1ccccc1)c1cccc(C(=O)CP(c2ccccc2)c2ccccc2)c1 | > 200 | 33.1 | –
Cc1[nH]n(C2=NCCN2)c(=O)c1Cc1ccccc1 | > 200 | > 200 | –
CN(C)CCNC(=O)c1ccc(NC(=O)c2nc([N+](=O)[O-])cn2C)cc1 | > 200 | 182 | –
O=C(NCCC1([N+](=O)[O-])CCN(C(=O)c2ccccc2)CC1)c1ccccc1 | – | – | inactive
CCOC(=O)NP(=O)(Nc1ccccc1)Nc1ccccc1 | > 200 | > 200 | –
Cc1[nH]c2ncnc(N)c2c1Cc1ccccc1 | > 200 | 2.63 | –
Cc1c(/C=N/NC(=O)c2ccccc2O)c(=O)n(-c2ccccc2)n1C | > 200 | 69.2 | –
Cc1ccc2oc(=O)c(C#N)c(/C=C/c3ccc(Cl)cc3)c2c1 | > 200 | > 200 | –
COC(=O)C1=Nc2c(C)nn(-c3ccccc3)c2N=C(c2ccc([N+](=O)[O-])cc2)C1 | > 200 | > 200 | –
CCC(C)(O)c1cn(-c2cccc(S(=O)(=O)O)c2)nn1 (stereo not given) | > 417 | > 417 | –
CC1(O)CCC2(C)C(=O)C1(C)CCC21OCCO1 (stereo not given) | – | – | inactive
O=C1C2C(C(=O)N1c1ccccc1)C(c1ccccc1)N(c1ccccc1)C2c1ccccc1 (stereo not given) | > 22.4 | 15.8 | –

SMILES | EC50 [µM] | IC50 [µM] | outcome
COc1ccc(NCC(=O)Nn2c(C)nc3ccc(S(=O)(=O)Nc4ccc(OC)cc4)cc3c2=O)cc1 | > 100 | > 100 | –
Cc1cccc2c1CC1(Cc3ccccc3C1=O)C2=O (stereo not given) | > 200 | > 200 | –
C/C(N=NS(=O)(=O)c1c(C)cc(C)cc1C)=C1\C=CC=CN1O | – | – | inactive
CCOc1ccc(/C=C/C(=O)c2sc(NNC(C)=O)nc2C)cc1 | > 20.9 | > 20.9 | –
COC(=O)CSc1nc2[nH]c(SC)c(C(N)=O)c2c(=O)n1-c1ccccc1 | > 200 | > 200 | –
COc1ccc2c(c1)c(OC)c(CC(O)C(C)(C)O)c(=O)n2C (stereo not given) | > 200 | > 200 | –
Cc1cc2c(=O)cc(-c3ccc(Cl)c(Cl)c3)oc2c(C(=O)O)c1C | – | – | inactive
COC(=O)C(C(=O)c1ccccc1)C(C(=O)C(=O)Nc1ccc(OC)cc1OC)C(=O)C(=O)c1ccc(C)cc1 (stereo not given) | > 457 | 407 | –
CCOC(=O)c1cc(/C=C/C(C)=C/C(=O)OC)n(C)c1C | > 24.5 | > 24.5 | –
Cc1ccccc1C1=[N+]([O-])c2ccc(Cl)cc2C1=O | – | – | inactive
C=CCCNCC/C=C\[Si](C)(C)C | > 1260 | 1230 | –
Cc1cc2c(cc1C)Nc1oc3ccc4ccccc4c3c(=O)c1C=N2 | > 200 | > 200 | –
CN1CC(=O)Nc2c(ncn2C2OC(CO)C(O)C2O)C1=O (stereo not given) | > 229 | > 229 | –
C1=CC2CC1C1C(=C3Sc4ccccc4S3)c3nccnc3C(=C3Sc4ccccc4S3)C21 (stereo not given) | > 14.5 | > 14.5 | –
CC(O)c1ccc(C(O)/C(=N\NC(=O)c2ccncc2)c2nc3ccc([N+](=O)[O-])cc3[nH]c2=O)cc1 (stereo not given) | > 74.1 | 60.3 | –
O=C(CCc1nnc2s/c(=C\c3ccc([N+](=O)[O-])cc3)c(=O)n12)Nc1ccc(Cl)c(Cl)c1 | > 69.2 | 38.9 | –
CC1(C)C2CCC3=C(CCC4(C)C5C[C@](C)(C(=O)O)CC[C@]5(C)CC[C@]34C)[C@@]2(C)CC[C@@H]1O (stereo not given in full) | 24 | 81.3 | –
Cc1ccc(N=Nc2ccc(O)c(=O)cc2)cc1 | > 11.2 | 6.92 | –
Cc1ccc(/C=C/C(=N/NC(=O)N/N=C(/C=C/c2ccc(C)cc2)C(C)C)C(C)C)cc1 | > 100 | > 100 | –
O=C(OCCN1CCCC12CCCCC2)C(c1ccccc1)C1CCCC1 (stereo not given) | > 200 | 7.76 | –
